Measurements published in publication PMC11009625, “Antibiotic class with potent in vivo activity targeting lipopolysaccharide synthesis in Gram-negative bacteria” (Proceedings of the National Academy of Sciences of the …, 2024).
In brackets after ≈: the same amount, converted by molar mass.

Legend:
E. coli ATCC 25922 = test: Frequency of resistance and agar MIC, E. coli; format: cell-based; conditions: Escherichia coli, ATCC25922, read-out: Agar MIC E. coli ATCC 25922
Method: (§1) Minimum inhibitory concentration (MIC) values were determined according to the Clinical Laboratory Standards Institute guidelines. Frequency of resistance was determined by plating ~5 × 10^8 bacterial cells on agar-solidified media plates containing test compound at concentrations corresponding to four times the measured solid-media MIC of the strains. Colonies were counted after 24 h, restreaked onto media containing the same concentration of compound, and the MIC remeasured against the assayed compound. Genomic DNA from isolated clones was sequenced by paired-end sequencing on an Illumina MiSeq device. Complete experimental details available in SI Appendix. […]
Minimum inhibitory concentration (MIC) determination. […] Appropriate inoculation suspension density was assessed using a Sensititre Nephelometer with a Sensititre 0.5 […]
Frequency of Resistance. Frequency of resistance was assessed by spread plating between […] cfu of a freshly-grown culture of the strain of interest on plates containing a concentration of compound corresponding to 4 times the MIC of the strain (as determined by agar-dilution MIC). […] The frequency of resistance was determined by dividing the number of colonies obtained on the selective plates after 24 hours of growth by the calculated total population plated. […]

in vivo = test: in vivo; design: species or system NMRI mice; conditions: female, NMRI, mouse, sc
Method: PK and safety studies were done the Latvian Institute for Organic Synthesis (Riga, Latvia) and in vivo efficacy studies were done at Statens Serum Institut (Copenhagen, Denmark). Assays were done in accordance with the relevant permits at the respective sites (SI Appendix). For PK studies, plasma samples were taken from mice dosed subcutaneously and the samples were analyzed by UPLC/MS/MS. For in vivo efficacy studies, neutropenic mice were infected intraperitoneally with 10^6 bacteria and treated with subcutaneously with test compounds 1 h after infection. The mice were euthanized 4 h after treatment and serially diluted samples of blood and peritoneal fluid were plated onto blood agar plates. Complete experimental details available in SI Appendix. […]
In vivo pharmacokinetic studies
Animals. NMRI female mice (10–12 weeks old, 27–33 g, n = 60) were obtained from ENVIGO (The Netherlands) and housed prior to treatment under standard conditions (21–23 °C, 12-h light/dark cycle, relative humidity 45%–65%) with unlimited access to food (R70 diet from […]
Lantmännen) and water. The experimental procedures were performed in accordance with the guidelines of the European Community and local laws and policies (Directive 2010/63/EU), and all of the procedures were approved by Food and Veterinary Service, Riga, Latvia. […]
PK assay in mice. For PK studies mice were dosed subcutaneously (SC) via a single bolus injection (injection volume 10 mL/kg). Blood samples were collected in tubes containing heparin. Blood was sampled from tail vein 15, 30, 60, 120, and 240min after the SC administration of the compounds. Tubes were centrifuged at +4 °C 10,000× g for 3 min. Plasma samples were collected and stored at −20 °C until analysis.
Plasma sample analysis by UPLC/MS/MS. Concentrations of EBL-3599 and EBL-3647 in mouse blood plasma were measured by liquid chromatography tandem mass spectrometry (LC/MS/MS) in positive electrospray ionization (ESI+) in multi reaction monitoring (MRM) mode.
Analyses were performed on a Waters Acquity UPLC system coupled to Waters XEVO TQ-Smicro tandem mass spectrometer. Chromatographical separation was carried out on Waters Acquity BEH C18 column (2.1×50mm, 1.7µm). The column temperature was 30°C, flow rate was 0.4mL/min. Linear gradient elution was applied, solvent A was 0.1% formic acid in water and solvent B was acetonitrile. The gradient program was: 0min – 5% B; 2.5min – 98% B; 4.5min – 98% B; 4.7min – 5% B; 5min – 5% B. Injection volume was 1µL.
Mass spectrometry parameters were obtained experimentally by direct infusion of EBL-3599 and […]
energy was 30 for all transitions. MS/MS transitions for EBL-3647 were 667.80 > 225.90 and 667.80 > 309.96. Cone voltage was 15V and collision energy was 35 and 25, respectively.
Calibration standards and quality control samples were prepared by spiking a blank mouse plasma with a stock solution of analyte to achieve a nominal concentration from 0.08 μg/mL to 80 μg/mL for both analyte.
A sample volume of 20 μL was transferred into a plastic tube and mixed with 300μL acetonitrile/methanol mixture (3:1, v/v) to precipitate proteins. The tubes was vortexed to mix and centrifuged at 10000 rpm for 10 min. 200 μL of supernatant was diluted with 600 μL of 0.1% formic acid and subjected to LC/MS/MS analysis. Samples above the upper limit of calibration should be diluted 10 times with blank plasma extract and reanalyzed. Bioanalysis of samples from each mouse were measured in duplicate and the results averaged.
Bacterial strains and inoculum. E. coli EC 106-09 (EN122) and K. pneumoniae SSI #3010 (EN124) are clinical isolates from Denmark. Bacterial suspensions for inoculation of mice were prepared

[1] = tested on: K. pneumoniae ATCC 13883 (EN0006) and selected mutants; test: MIC of mutants from frequency of resistance experiments; format: cell-based; conditions: for MIC EN0006: ATCC 13883 parent; for MIC EN0006 / MIC CH10219: lpxH wild-type; for MIC CH10218: lpxH F128L; for MIC CH10218 / MIC CH10220 / MIC CH10221 / MIC CH10219: selected against EBL-3647; for MIC CH10206 / MIC CH10220: lpxH F141S; for MIC CH10206 / MIC CH10205 / MIC CH10207: selected against EBL-3599; for MIC CH10205 / MIC CH10207 / MIC CH10221: lpxH R80H; for MIC CH10219: ramR A40V
Method: as §1
Minimum inhibitory concentration (MIC) determination. Broth microdilution and agar dilution MIC assays were conducted according to CLSI guidelines (M07-2012). Appropriate inoculation suspension density was assessed using a Sensititre Nephelometer with a Sensititre 0.5 […]
McFarland Standard. […]
Frequency of Resistance. Frequency of resistance was assessed by spread plating between […] cfu of a freshly-grown culture of the strain of interest on plates containing a concentration of compound corresponding to 4 times the MIC of the strain (as determined by agar-dilution MIC). Serial dilutions of the same cultures were plated on non-selective media to determine the number of cells plated. The frequency of resistance was determined by dividing the number of colonies obtained on the selective plates after 24 hours of growth by the calculated total population plated. Typically 4 independently grown cultures were used to initiate 4 separate experiments, and the total combined number of obtained colonies and plated populations were used for calculations. Isolated colonies from selection plates were re-streaked on an additional plate containing the same concentration of compound used in the original selection. Clones were saved at -80 °C for subsequent analysis.
Whole-genome sequencing and data analysis. Genomic DNA of selected clones was prepared using an Epicentre MasterPure Complete DNA Purification Kit. Whole-genome sequencing libraries were prepared using an Illumina Nextera XT Library Preparation Kit. The libraries were sequenced using an Illumina MiSeq device with a V3 600-cycle reagent kit. Whole-genome sequencing data was analyzed using CLC Genomics Workbench Version 11. To determine the genotype of MDR strains from the ENABLE strain collection, de novo assembled contigs were […]

## Cc1cc(C#N)nc(N2CCN(S(=O)(=O)c3ccc(NC(=O)c4cc(CN5CC(CN)C5)ccc4N(C)S(C)(=O)=O)cc3)CC2)n1 [EBL-3647]
E. coli ATCC 25922
  MIC: 2 µg/mL (≈ 2.99 µM)
In vivo; 10 mg/kg
  AUC: 20200 ng·h/mL
  Cmax: 12000 ng/mL
In vivo; 25 mg/kg
  AUC: 55300 ng·h/mL
  Cmax: 30000 ng/mL
In vivo; 50 mg/kg
  AUC: 140000 ng·h/mL
  Cmax: 72000 ng/mL
In vivo; 100 mg/kg
  AUC: 222000 ng·h/mL
  Cmax: 130000 ng/mL
[1]
  MIC EN0006: 1 µg/mL
  MIC CH10218: 32 µg/mL
  MIC CH10206: > 64 µg/mL
  MIC CH10220: > 64 µg/mL
  MIC CH10205: 32 µg/mL
  MIC CH10207: 32 µg/mL
  MIC CH10221: > 64 µg/mL
  MIC CH10219: 8 µg/mL

## Cc1cc(C#N)nc(N2CCN(S(=O)(=O)c3ccc(NC(=O)c4cc(CNCCCN)ccc4N(C)S(C)(=O)=O)cc3)CC2)n1.Cl.Cl [EBL-3599]
E. coli ATCC 25922
  MIC: 2 µg/mL
In vivo; 10 mg/kg
  AUC: 22900 ng·h/mL
  Cmax: 13000 ng/mL
In vivo; 25 mg/kg
  AUC: 58000 ng·h/mL
  Cmax: 27000 ng/mL
In vivo; 50 mg/kg
  AUC: 136000 ng·h/mL
  Cmax: 65000 ng/mL
In vivo; 100 mg/kg
  AUC: 349000 ng·h/mL
  Cmax: 142000 ng/mL
[1]
  MIC EN0006: 1 µg/mL
  MIC CH10218: 64 µg/mL
  MIC CH10206: > 64 µg/mL
  MIC CH10220: > 64 µg/mL
  MIC CH10205: 32 µg/mL
  MIC CH10207: 32 µg/mL
  MIC CH10221: > 64 µg/mL
  MIC CH10219: 8 µg/mL
